# Laboratory results from US20050049204A1, “Compounds for the treatment of flaviviridae infections” (priority 2003, published 2005).
# Read-outs that look alike come from different tables or passages of the source.
# Columns and labels:
# [1] = tested on: rRNA in HCV-replicon RNA-containing Huh7 cells; assay: rRNA levels in HCV replicon cells (cellular toxicity), Q-RT-PCR after 96 h
# Protocol: HCV replicon cells were seeded in the presence of test compound at approximately 10^3 cells per well in a 96-well plate and incubated for 96 hours. rRNA and HCV RNA were quantified by Q-RT-PCR. ●: HCV RNA levels; ◯: rRNA levels; ▾: HCV RNA levels after correction (=subtraction of rRNA) for cellular toxicity. […] The plots shown are the mean results of at least three independent experiments. EC90 values as given in Table 1 are read from the HCV curves corrected for cellular toxicity.
# HCV-replicon RNA-containing Huh7 cells (Clone A cells; Apath, LLC, St. Louis, Mo.) were kept in exponential growth in DMEM media (high glucose, no pyruvate) containing 10% fetal bovine serum, 1× non-essential amino acids (100 units/ml), penicillin-streptomycin (100 μg/ml), glutamine (0.292 mg/ml), and G418 (1,000 μg/ml). Antiviral assays were performed in the same medium without G418. […] Cells were seeded in a 6-well plate at 10^5 cells per well. Candidate antiviral compounds were tested as described (Stuyver, et al. “A ribonucleoside analogue that blocks the replication of bovine viral diarrhea and hepatitis C viruses in culture” Antimicrob. Agents Chemother., January 2003, 47 (1), 244-254). Incubation times differed according to the type of experiment. At the end of the incubation step, cells were counted using the trypan-blue exclusion method, and total cellular RNA was isolated (Rneasy 96 kit, Qiagen, CA). Replicon RNA and an internal control (TaqMan Ribosomal RNA Control Reagents, Applied Biosystems, CA) were amplified in a single-step, multiplex RT-PCR protocol, as recommended by the manufacturer and as described (Stuyver, et al. “A ribonucleoside analogue that blocks the replication of bovine viral diarrhea and hepatitis C viruses in culture” Antimicrob. Agents Chemother., January 2003, 47 (1), 244-254).
# Replicon cells were incubated in the absence or presence of these anti-metabolites for 96 hours, after which intracellular rRNA and HCV RNA levels were quantified (Table 1).
# [2] = tested on: HCV-replicon RNA-containing Huh7 cells (HCV RNA); assay: HCV replicon assay: HCV RNA quantified by Q-RT-PCR after 96 h of compound exposure; format: cell-based, hepatitis C virus (HCV); details: for log reduction at 100 µM: read-out: Corrected HCV RNA log10 reduction at 100 μM; for log reduction at 10 µM: read-out: Corrected HCV RNA log10 reduction at 10 μM; for EC90: read-out: Corrected HCV RNA EC90; for specific inhibition of the replicon: RNR inhibitors tested
# Protocol: (§1) Incubation times differed according to the type of experiment.
# [3] = tested on: rRNA in HCV replicon Huh7 cells; assay: Reversal studies with natural nucleosides: rRNA; format: cell-based; details: for log10 reduction rRNA: no nucleoside
# Protocol: as §1
# (§2) Cells were incubated with the test compound and, simultaneously, the natural ribo- or 2′-deoxy nucleosides (adenosine, guanosine (G), cytidine (C), uridine (U), 2′-deoxycytidine (dC), 2′-deoxyuridine, thymidine, 2′-deoxyguanosine (dG), and 2′-deoxyadenosine) (Table 2).
# [4] = tested on: HCV replicon-containing Huh7 cell line; assay: Dynamics of replicon cell growth (cell count) over a 7-day period; details: seven-day assay, tested at approximately EC90 value
# [5] = tested on: HCV replicon RNA in Huh7 cells; assay: Reversal studies with natural nucleosides: HCV RNA; format: cell-based, hepatitis C virus (HCV); details: for log10 reduction HCV: no nucleoside
# Protocol: as §1, §2
# [6] = Hepatitis C virus, Huh-7, 96 h, read from HCV curves corrected for rRNA reduction
# [7] = 10 μM, 96 h, corrected by subtraction of rRNA
# [8] = 96 h, corrected by subtraction of rRNA
# [9] = 96 h, read from HCV curves corrected for rRNA reduction
Compound,Log10 RNA reduction (100 μM) rRNA [1],"log reduction at 100 µM ([2]; Hepatitis C virus, Huh-7, 96 h)","EC90 [2, 6]","Corrected HCV RNA log10 reduction at 10 μM [2, 7]","Corrected HCV RNA log10 reduction at 100 μM [2, 8]","EC90 ([2]; Hepatitis C virus, Huh-7, 96 h)",Log10 RNA reduction (100 μM) HCV ([2]; 96 h),further results
"NC(=O)NO [Hydroxy Urea, hydroxy urea]",0.25 ± 0.20 log10,-0.08 ± 0.16,> 100 µM,,,,,"log reduction at 10 µM ([2]; Hepatitis C virus, Huh-7, 10 μM, 96 h, corrected by subtraction of rRNA): 0.06 ± 0.04; specific inhibition of the replicon [2]: none"
"COc1c(C)c2c(c(O)c1C/C=C(\C)CCC(=O)O)C(=O)OC2 [MPA, mycophenolic acid]",1.09 ± 0.28 log10,0.07 ± 0.47,> 100 µM,0.22 ± 0.01 log10,,,,
"CN(Cc1cnc2nc(N)nc(N)c2n1)c1ccc(C(=O)N[C@@H](CCC(=O)O)C(=O)O)cc1 [Methotrexate, methotrexate]",0.07 ± 0.10 log10,,> 100 µM,0.15 ± 0.01 log10,0.11 ± 0.09 log10,,,
NC(=O)c1ncn([C@@H]2O[C@H](CO)[C@@H](O)[C@H]2O)c1O [Mizoribine],0.21 ± 0.50 log10,0.08 ± 0.82,> 100 µM,−0.14 ± 0.12 log10,,,,
"O=C(O)C[C@H](NC(=O)CP(=O)(O)O)C(=O)O [PALA, N-(phosphonoacetyl)-L-aspartate]",0.48 ± 0.02 log10,,,1.18 ± 0.11 log10,1.30 ± 0.05 log10,7.6 µM,,log10 reduction rRNA including natural nucleoside ([3]; 100 μM + U at 50 μM): −0.13 ± 0.10 log10; log10 reduction rRNA ([3]; 100 μM): 0.48 ± 0.02 log10; effect on cell growth [4]: minimal effect; log10 reduction HCV including natural nucleoside ([5]; 100 μM + U at 50 μM): 0.14 ± 0.03 log10; log10 reduction HCV ([5]; 100 μM): 1.77 ± 0.02 log10
"Nc1ccn(C2OC(CO)C(O)C2=CF)c(=O)n1 (stereo not shown) [Tezacytabine, tezacytabine]",1.78 ± 0.69 log10,,,0.63 ± 0.07 log10,−0.19 ± 0.49 log10,,1.59 ± 0.08 log10,"EC90 [2, 9]: > 100 µM; specific inhibition of the replicon [2]: none"
"NC(=O)c1csc([C@@H]2O[C@H](CO)[C@@H](O)[C@H]2O)n1 [Tiazofurin, tiazofurin]",0.99 ± 0.35 log10,,,,−0.13 ± 0.37 log10,> 100 µM,0.86 ± 0.27 log10,"log reduction at 10 µM ([2]; Hepatitis C virus, Huh-7, 96 h): 0.04 ± 0.1"
"Nc1ccn([C@@H]2O[C@H](CO)[C@@H](O)C2(F)F)c(=O)n1 [dFdC, difluorodeoxycytidine]",,,,1.32 ± 0.08 log10,,0.17 µM,,"Log10 RNA reduction rRNA ([1]; dFdC tested at 50 μM): 0.59 ± 0.05 log10; log10 reduction rRNA including natural nucleoside ([3]; 1 μM + dC at 50 μM): 0.07 ± 0.02 log10; log10 reduction rRNA ([3]; 1 μM): 0.52 ± 0.03 log10; Corrected HCV RNA log10 reduction ([2]; dFdC tested at 50 μM, 96 h, corrected for rRNA): 1.29 ± 0.11 log10; log10 reduction HCV including natural nucleoside ([5]; 1 μM + dC at 50 μM): 0.06 ± 0.00 log10; log10 reduction HCV ([5]; 1 μM): 1.89 ± 0.07 log10"
Cyclopentyl-cytosine [CP-C],0.91 ± 0.13 log10,,,0.64 ± 0.10 log10,1.06 ± 0.26 log10,,1.97 ± 0.38 log10,"log10 reduction rRNA including natural nucleoside ([3]; 20 μM + C at 50 μM): 0.02 ± 0.00 log10; log10 reduction rRNA ([3]; 20 μM): 0.87 ± 0.08 log10; log10 reduction rRNA including natural nucleoside ([3]; 100 μM + C at 50 μM): 0.17 ± 0.01 log10; log10 reduction rRNA ([3]; 100 μM): 1.21 ± 0.02 log10; EC90 [2, 9]: 25 µM; log10 reduction HCV including natural nucleoside ([5]; 20 μM + C at 50 μM): 0.11 ± 0.01 log10; log10 reduction HCV ([5]; 20 μM): 1.80 ± 0.07 log10; log10 reduction HCV including natural nucleoside ([5]; 100 μM + C at 50 μM): 0.32 ± 0.11 log10; log10 reduction HCV ([5]; 100 μM): 2.32 ± 0.08 log10"
